Reference: ChEMBL document CHEMBL1949543, “Synthesis and evaluation of novel monosubstituted sulfonylurea derivatives as antituberculosis agents” (Eur J Med Chem, 2012)
≈ marks a conversion by molar mass, not a printed value.

Test system: Mycobacterium tuberculosis variant bovis
Test: Antituberculosis activity against Mycobacterium bovis ATCC 25523
Type: functional

| Structure (SMILES) | MIC [µg/mL] |
| --- | --- |
| Cc1ccnc(NC(=O)NS(=O)(=O)c2cc(NC(=O)CCl)ccc2Cl)n1 | 10 (≈ 23.9 µM) |
| COc1ccnc(NC(=O)NS(=O)(=O)c2cc(NC(=O)CCl)ccc2Cl)n1 | 10 (≈ 23 µM) |
